Square brackets hold non-standard residues; d marks the D form. Ends that are not written are not given here. pGlu = O=C1CC[C@@H](C(=O)O)N1

Results on two substances are retold here after patent publication US10617736B2, “Method for modulating insulin-independent glucose transport using teneurin C-terminal associated peptide (TCAP)” (priority 2014, dated 2020).

The test system of test [1] is skeletal mouse muscle fibers. The test can be described thus: FITC-TCAP-1 binding assay on skeletal mouse muscle sections. The note with it: fluorescence, co-staining with β-DG. The procedure: (§1) The [K8]-TCAP-1 peptide was labeled with fluorescein isothiocyanate (FITC) according to the EZ-label TITC Protein labeling kit (Pierce Biotechnology, Rockford Ill.). FITC was dissolved in dimethylformamide, mixed with the [K8]-TCAP-1 at a 24:1 excess molar ratio and incubated for 2 h at RT in the dark to allow for the conjugation of the primary amine of the lysine group. A dextran column was used to remove the unconjugated FITC and the absorbance of each fraction was measured at 280 nm to determine the elution point of the conjugated peptide in phosphate buffered saline (PBS; 0.1M phosphate, 0.15 M NaCl, pH7.2). The four fractions with the highest protein absorbance readings were combined and sterilize-filtered using an Acrodisc Syringe 0.2 μm Supor low protein binding filter (Pall Life Sciences, Ann Arbor, Mich.). […] The amount of the FITC required to be injected as a control was determined by applying different PBS-diluted preparations of FITC on a nitrocelluose membrate. The level of fluorescence was directly compared to that of a spot of the FITC-[K8]-TCAP-1 conjugate to be administered and that dilution was used for the administration after sterilize-filtration indicated above. Fluorescence was measured using an EP Chemi II Darkroom system (UVP, Upland, Calif.) with the sequential integration function of LabWorks Image acquisition and analysis software. […]

In another test the target is T1, latrophilin-1 (Mus musculus, UniProt Q80TR1).
T1 construct: only latrophilin 1 and 3 could be detected in this cell line or in the intact mouse brain; endogenous in cells; host or cells: Hypo E-38 (mHypoE-38) immortalized embryonic mouse hypothalamic neurons
T1 sequence (Q80TR1 29-1466): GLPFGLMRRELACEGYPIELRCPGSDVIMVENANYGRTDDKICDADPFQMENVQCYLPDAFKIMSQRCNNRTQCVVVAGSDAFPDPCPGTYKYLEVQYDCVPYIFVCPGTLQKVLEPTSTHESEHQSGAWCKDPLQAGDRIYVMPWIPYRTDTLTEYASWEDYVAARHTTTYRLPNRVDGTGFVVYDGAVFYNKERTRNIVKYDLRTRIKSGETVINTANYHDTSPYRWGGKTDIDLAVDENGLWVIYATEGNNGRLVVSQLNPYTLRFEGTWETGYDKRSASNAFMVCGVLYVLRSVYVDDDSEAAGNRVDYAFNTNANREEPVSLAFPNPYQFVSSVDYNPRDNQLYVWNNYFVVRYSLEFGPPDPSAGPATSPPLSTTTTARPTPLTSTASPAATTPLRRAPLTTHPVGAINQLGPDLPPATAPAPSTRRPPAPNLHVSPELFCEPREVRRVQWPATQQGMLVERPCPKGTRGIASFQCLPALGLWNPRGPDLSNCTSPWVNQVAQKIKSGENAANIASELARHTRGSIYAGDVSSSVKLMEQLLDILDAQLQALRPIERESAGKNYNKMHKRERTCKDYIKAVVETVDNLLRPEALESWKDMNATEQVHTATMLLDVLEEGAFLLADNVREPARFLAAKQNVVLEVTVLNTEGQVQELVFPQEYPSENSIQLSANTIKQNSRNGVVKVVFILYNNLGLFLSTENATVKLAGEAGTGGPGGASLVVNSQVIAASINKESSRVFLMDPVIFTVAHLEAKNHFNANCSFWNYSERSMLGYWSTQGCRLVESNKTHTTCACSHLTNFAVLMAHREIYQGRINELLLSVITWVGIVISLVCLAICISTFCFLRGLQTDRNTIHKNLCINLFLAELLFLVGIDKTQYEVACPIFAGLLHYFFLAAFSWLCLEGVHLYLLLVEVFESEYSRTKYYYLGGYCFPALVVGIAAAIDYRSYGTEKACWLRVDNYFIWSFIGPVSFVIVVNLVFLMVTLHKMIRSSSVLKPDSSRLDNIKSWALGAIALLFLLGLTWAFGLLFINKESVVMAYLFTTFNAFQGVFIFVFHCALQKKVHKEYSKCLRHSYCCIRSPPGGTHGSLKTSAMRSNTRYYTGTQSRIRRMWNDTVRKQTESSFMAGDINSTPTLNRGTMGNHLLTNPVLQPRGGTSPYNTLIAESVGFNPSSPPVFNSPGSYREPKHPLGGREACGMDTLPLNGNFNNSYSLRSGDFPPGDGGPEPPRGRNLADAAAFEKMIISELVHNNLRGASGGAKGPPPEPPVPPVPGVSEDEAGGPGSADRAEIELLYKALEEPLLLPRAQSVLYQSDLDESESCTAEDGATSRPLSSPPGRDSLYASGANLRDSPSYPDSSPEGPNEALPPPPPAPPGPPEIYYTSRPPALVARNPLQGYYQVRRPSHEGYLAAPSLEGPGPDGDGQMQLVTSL
The test can be described thus: Co-localization of FITC-TCAP-1 with latrophilin-1 in Hypo E-38 cells. It counts as binding. The procedure: as §1

A further test has as its system mHypoE-38 neurons. Put plainly: 3H-2-deoxyglucose uptake in mHypoE-38 hypothalamic neurons. Format: cell-based, mouse. On the procedure:
The effect of TCAP-1 on glucose uptake in brain cells was examined in immortalized […] hypothalamic cells. Immortalized mHypoE-38 hypothalamic embryonic mouse neurons (gift from Dr. Denise Belsham, University of Toronto) were grown in Dulbecco's Modified Eagle Medium (DMEM) containing 4500 mg/L D-glucose, L-glutamine, and 25 mM HEPES buffer, without sodium pyruvate or phenol red (Gibco, Cat. No. 21063029), supplemented with 5% heat-inactivated fetal bovine serum (FBS), 100 U/ml penicillin and 100 μg/ml streptomycin. Cells were maintained at 60-70% confluency at 37° C. in a humidified CO2 incubator. To passage, cells were washed once in sterile PBS, trypsinized and seeded at a density of 100,000 cells per 3.5 cm plate and allowed to grow for 2-3 days. 24 hours prior to experimentation, medium was changed. mHypoE-38 hypothalamic cells were grown in 6-well tissue culture dishes (Corning Incorporated, Cat. No. 3516) at a seeding density of200 000 cells/9.5 cm^2 well in a 37° C. normoxic incubator. Cultures were grown for 36 hours to 85% confluence prior to experimentation. At day 3 post-plating, cells were washed twice with Locke's buffer (154 mM NaCl, 5.6 mM KCl, 2.3 mM CaCl2, 3.6 mM NaHCO3, 5 mM HEPES) without serum and glucose. The culture was incubated in the Locke's buffer for 1 hour at 37° C. followed by exposure to 100 nM insulin, 100 nM TCAP-1, 100 nM SC-TCAP-1, or saline. KCl (40 mM) and […] (0.5 μCi/ml) were added to culture 5 minutes before termination of treatment exposure. Uptake of ^3H-2-deoxyglucose was stopped immediately after 5 minutes with three washes of ice-cold 0.9% NaCl solution. Parallel experiments with 5 μM of cytochalasin B were performed to ensure that glucose uptake was of transporter-inhibitable transport. The cells were digested with 1 ml of 0.05 N NaOH at 0, 15, 30, 45, 60, 90 and 120 minutes after treatment. Cell lysates were used for determination of radioactivity by a beta liquid scintillation counter. Experiments were repeated three times with 3 wells pear condition per replication. […] hypothalamic cells were cultured as above and treated with 100 nM insulin, 100 nM TCAP-1 or saline, exposed to 5.6 mM or 40 mM KCl and 0.5 μCi/well 3H-2-deoxy glucose, and subsequently lysed with 50 mM NaOH. Radioactivity in cell lysates was counted using a liquid scintillation counter.

A further test deals with C2C12 myocytes. Put plainly: 3H-2-deoxyglucose uptake in C2C12 myocytes. Format: cell-based, mouse. The conditions noted are these: 100 nM, over two hours (FIG. 20). The procedure:
The effect of TCAP-1 on glucose uptake in muscle cells was examined in a C2C12 mouse myocyte cell line. C2C12 myocytes were cultured in Dulbecco's Modified Eagle Medium (DMEM) containing 4500 mg/L D-glucose, L-glutamine, and 25 mM HEPES buffer, without sodium pyruvate or phenol red (Gibco, Cat. No. 21063029), supplemented with 20% heat-inactivated fetal bovine serum (FBS), 100 U/ml penicillin and 100 μg/ml streptomycin. Cells were maintained at 80% confluency at 37° C. in a humidified CO2 incubator. To initiate differentiation, myocytes were further cultured in DMEM supplemented with 10% heat-inactivated horse serum (HS), transferrin, 100 U/ml penicillin and 100 μg/ml streptomycin. Myocytes were allowed to differentiate into multi-nucleated myotubes for 5 days before experimentation. 24 hours prior to experimentation, medium was changed. At day 5 of differentiation, cells were deprived of serum and incubated in Minimal Essential Medium containing 1000 mg/L D-glucose, L-glutamine, without nucleosides (Gibco, Cat. No. 12561049) for 5 hours at 37° C. prior to incubation with insulin, TCAP-1, or saline. Cells were washed twice in glucose-free HEPES-buffered solution (HBS), containing 140 mM NaCl, 20 mM HEPES, 5 mM KCl, 2.5 mM MgSO4 and 1 mM CaCl2, followed by determinations of transport of 3H-2-deoxyglucose for 10 minutes at 0.5 μCi/ml at room temperature. Uptake of 3H-2-deoxyglucose was stopped immediately after 10 minutes with three washes of ice-cold 0.9% NaCl solution. Parallel experiments with 5 μM of cytochalasin B were done to ensure that glucose uptake was of transporter-inhibitable transport The cells were digested with 1 ml of 0.05 N NaOH. Cell lysates were used for determination of radioactivity by a beta liquid scintillation counter. Experiments were repeated three times with 3 wells per condition per replication. […] Cell lysates were used for determination of radioactivity by a beta liquid scintillation counter. […]

For “FITC-TCAP-1: [K8]-TCAP-1 peptide labeled with fluorescein isothiocyanate (FITC) (QQLLGTGKVQGYDGYFVLSVEQYLELSDSANNIHFMRQSEI; ends and bridges not checked; also: FITC label, attachment site not given here)”, the “binding to 5 μm sections of mouse gastrocnemius muscle” value in test [1] is “preferentially binds to the membranes of individual skeletal mouse muscle fibers”. In addition, the “co-localization with latrophilin-1 immunoreactivity” value in the test with latrophilin-1 is given as “strong co-localization”.

Regarding “pETHSLELRVSLIGEVQQFIGYENQSDQNYGLLAYFDRVGMS-NH2 ([pGlu]THSLELRVSLIGEVQQFIGYENQSDQNYGLLAYFDRVGMS-NH2) [scTCAP-1, scrambled TCAP control with same amino acid composition but different order, pyroglutamic acid in first position]”, the “3H-2-deoxyglucose uptake value relative to baseline” value in the test on mHypoE-38 neurons (100 nM, 40 mM KCl, 60 minutes) is 61.523±7.545%. The “3H-2-deoxyglucose uptake relative to baseline” value in the test with mHypoE-38 neurons (100 nM, 40 mM KCl, 90 minutes) came out at 68.020±4.812%. The “3HDG uptake in whole cells over time” value in the test with mHypoE-38 neurons (Hypo-E38 cells (FIG. 11C-E)) was “no significant glucose uptake”. Besides, the 3H-2-deoxyglucose uptake signal entry in the test on C2C12 myocytes is reported as “lack of positive signal”.
